The record followed here is PMC11927696, “Synthetic mycolates derivatives to decipher protein mycoloylation, a unique post-translational modification in bacteria” (The Journal of Biological Chemistry, 2025).

The target in assay [1] is T1, MytC (MytChis) (Corynebacterium glutamicum, UniProt Q8NTG4).
T1 construct: gene Cgl0343; residues 30-363 seen in crystal
Kind of assay: X-ray crystallography, […] Å. Type of assay: binding.

The target of assay [2] is T1, MytC (MytChis). Kind of assay: PorA mycoloylation, MALDI-TOF MS. To be noted: PorA acceptor; in combination with TDM/TMM mix, pH 8.0, 37 °C, 3 h. In kind it is biochemical.
Assay [3] concerns the target T2, MytA (MytAhis) (Corynebacterium glutamicum, UniProt P0C1D6).
T2 construct: gene csp1
Kind of assay: trehalose mycoloylation (TDM formation), TLC and MALDI-TOF MS. In kind it is biochemical. To be noted: 1 mM, acts as donor and acceptor, 5 μM MytA, pH 8.0, 37 °C, 3 h.

For assay [4], the target named is T2, MytA (MytAhis). Kind of assay: trehalose acylation (trehalose dipalmitate formation), MALDI-TOF MS. To be noted: 1 mM, acts as donor and acceptor, 5 μM MytA, pH 8.0, 37 °C, 3 h. Type of assay: biochemical.

T1 sequence (Q8NTG4 entry or part of it): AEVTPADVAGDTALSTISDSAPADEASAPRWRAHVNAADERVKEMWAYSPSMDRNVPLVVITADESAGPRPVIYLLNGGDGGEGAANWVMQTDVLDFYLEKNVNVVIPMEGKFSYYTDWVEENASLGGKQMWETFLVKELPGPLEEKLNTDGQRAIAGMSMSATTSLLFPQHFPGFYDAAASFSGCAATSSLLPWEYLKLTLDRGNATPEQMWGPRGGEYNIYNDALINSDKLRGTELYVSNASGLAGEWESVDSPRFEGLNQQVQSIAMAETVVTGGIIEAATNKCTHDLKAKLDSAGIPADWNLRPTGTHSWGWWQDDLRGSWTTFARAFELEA
T2 sequence (P0C1D6 44-657): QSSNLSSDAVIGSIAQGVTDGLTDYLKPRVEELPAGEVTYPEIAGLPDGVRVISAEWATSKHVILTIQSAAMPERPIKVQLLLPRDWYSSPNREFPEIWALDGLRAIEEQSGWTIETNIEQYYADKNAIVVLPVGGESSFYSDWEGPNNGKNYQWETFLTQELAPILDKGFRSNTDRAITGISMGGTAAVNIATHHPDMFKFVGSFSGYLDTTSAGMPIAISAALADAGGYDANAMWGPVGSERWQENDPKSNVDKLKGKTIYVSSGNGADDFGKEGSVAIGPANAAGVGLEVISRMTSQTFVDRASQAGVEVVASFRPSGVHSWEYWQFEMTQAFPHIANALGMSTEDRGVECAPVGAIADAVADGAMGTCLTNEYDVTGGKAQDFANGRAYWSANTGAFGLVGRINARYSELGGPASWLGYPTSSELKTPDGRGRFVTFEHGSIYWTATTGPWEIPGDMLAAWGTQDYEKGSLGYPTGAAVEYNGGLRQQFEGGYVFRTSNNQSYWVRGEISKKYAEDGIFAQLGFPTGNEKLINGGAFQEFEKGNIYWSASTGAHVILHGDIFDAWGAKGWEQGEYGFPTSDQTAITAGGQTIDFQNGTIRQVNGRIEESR

For `OC[C@H]1O[C@H](O[C@H]2O[C@H](CO)[C@@H](O)[C@H](O)[C@H]2O)[C@H](O)[C@@H](O)[C@@H]1O` [trehalose], on MytC (MytChis) [1] (second site, protein surface near active site groove, contacts E225 and D232 of helix α8, crystal with TMM-C13:0), the “X-ray crystallography, 2.69 Å” value is “A trehalose moiety was identified on the surface of MytC”.

On to `CCCCCCCCCCCCCCC[C@@H](O)CC(=O)OC[C@H]1O[C@H](O[C@H]2O[C@H](CO)[C@@H](O)[C@H](O)[C@H]2O)[C@H](O)[C@@H](O)[C@@H]1O` [compound 4, analog 4], for which the “PorA mycoloylation, MALDI-TOF MS” value on MytC (MytChis) [2] is given as “is perfectly used as a substrate to acylate PorA”.

`CCCCCCCCCCCCCCC[C@@H](O)[C@@H](CCCCCCCCCCCCCC)C(=O)OC[C@H]1O[C@H](O[C@H]2O[C@H](CO)[C@@H](O)[C@H](O)[C@H]2O)[C@H](O)[C@@H](O)[C@@H]1O` [synthetic TMM-C32:0]: the “trehalose mycoloylation (TDM formation), TLC and MALDI-TOF MS” value on MytA (MytAhis) [3] was “a small amount of TDM is detected on TLC”.

Regarding `CCCCCCCCCCCCCCCC(=O)OC[C@H]1O[C@H](O[C@H]2O[C@H](CO)[C@@H](O)[C@H](O)[C@H]2O)[C@H](O)[C@@H](O)[C@@H]1O` [compound 6, TMP], at MytA (MytAhis) [4], the “trehalose acylation (trehalose dipalmitate formation), MALDI-TOF MS” value was “both compounds are efficient substrates of MytA”.

For `CCCCC[C@@H](O)[C@@H](CCCCC)C(=O)OC[C@H]1O[C@H](O[C@H]2O[C@H](CO)[C@@H](O)[C@H](O)[C@H]2O)[C@H](O)[C@@H](O)[C@@H]1O` [compound 2, TMM-C13:0], the “X-ray crystallography, 2.69 Å” value on MytC (MytChis) [1] (covalent, mycoloyl ester on catalytic S189, co-crystallised, pH 7.1) is recorded as “S189 Oγ atom forms an ester bond with the carbonyl of the analog”.
